From patent US10772856B2, “Compositions and methods of use of beta-hydroxy-beta-methylbutyrate (HMB) for decreasing fat mass” (Metabolic Technologies, Inc., priority 2015, dated 2020)

Columns and labels:
[1] = test system: OP9 adipocytes; assay: Basal and isoproterenol stimulated lipolysis in differentiated OP9 adipocytes; format: cell-based
Method: As noted above, an increase in expression of ATGL in cells treated with HMB was observed, so the effect of HMB treatment on basal and isoproterenol stimulated lipolysis was determined directly in cultured adipocytes. The protocol of Viswanadha and Londos was used for optimization of conditions for measuring lipolysis in murine primary adipoctyes (J. Lipid Res. 2006. 47: 1859-1864) that include treatment with adenosine deaminase (ADA) to remove endogenous adenosine and then addition of ADA resistant PIA (phenylisopropyl-adenosine).
The following treatment strategies were tested: HMB doses of 0.1, 1 and 6 mM; 2 concentrations of the beta-adrenergic agonist isoproterenol 0.1 and 1 uM, and short term (immediately before lipolysis assay) vs. long term (48 h) HMB treatment (n=4 per treatment). Op9 adipocytes were used as SGBS cells take a long time (several weeks) to differentiate making them inconvenient to use.
Cells were pre-treated with varying concentrations of HMB in OP9 growth medium for 48 hrs. Following pre-treatment, cells were washed and incubated with Isoproterenol (0.1 or 1.0 uM) in lipolysis buffer: Krebs ringer bicarbonate (KRB) with 4% BSA. The medium also contained adenosine deaminase (ADA) and phenyl-isopropyl-adenosine (PIA) for 2 hrs at 37° C. ADA was added to remove endogenous adenosine and PIA, which is resistant to ADA, was used to have low standardized basal lipolysis. Following treatment, media was assayed for glycerol content and cells were lysed with RIPA buffer to determine protein concentration, *p<0.05, ** p<0.01. N=4.

[2] = test system: 3T3-F442A adipocytes; assay: Lipolysis (glycerol release) in 3T3-F442A adipocytes; format: cell-based, Murine; settings: 1 hour
Method: Methods. Murine 3T3-F442A preadipocytes were grown until confluence. After confluence, 3T3-F442A cells were allowed to differentiate into adipocytes and become filled with triglycerides. Lipolysis was assessed as glycerol release from 3T3-F442A adipocytes in well plates. Adipocyte monolayers were incubated with Krebs-Ringer buffer containing Hepes (KRH), supplemented with 2% fatty acid-free BSA, 5 mM glucose, ADA and PIA. In addition, cells were treated with β-hydroxy-β-methylbutyrate (HMB) at either 0 (control), 0.1, 1, or 6 mM concentrations. Cells were incubated in the absence (Basal) or in the presence of 0.1 μM isoproterenol for 1 hour. Aliquots of the incubation medium were removed and frozen until glycerol determination. Glycerol was measured by a commercial enzymatic method. Data were presented as the fold increase over control. Results. […] Lipolysis in Human Subcutaneous Adipocytes Methods. Human subcutaneous adipocytes were obtained from donors and incubated in vitro. Lipolysis was assessed as glycerol release in well plates. Adipocyte were incubated with Krebs-Ringer buffer containing Hepes (KRH), supplemented with 4% fatty acid-free BSA, 5 mM glucose, ADA and PIA. In addition, cells were treated with β-hydroxy-β-methylbutyrate (HMB) at either 0 (control), 0.1, or 1 mM concentrations in the presence of 1.0 μM isoproterenol for 2 hours. Aliquots of the incubation medium were removed and frozen until glycerol determination. Glycerol was measured by a commercial enzymatic method. Data were presented as the fold increase over control. Results. […] Effect of HMB on Gene Expression in Differentiated Adipocytes SGBS human pre-adipocytes were differentiated into adipocytes and treated with 1 mM HMB for 4 days. The human Simpson-Golabi-Behmel syndrome (SGBS) preadipocyte cell strain cells originate from an adipose tissue specimen of a patient with GSBS. Microarrays (mRNAs) were performed. […] Similarly, cytokine receptor interaction and calcium signaling pathways are also elevated as measured by mRNAs.

[3] = test system: Human subcutaneous adipocytes; assay: Lipolysis (glycerol release) in human subcutaneous adipocytes; format: cell-based; settings: 1.0 μM isoproterenol, 2 hours
Method: (§1) Methods. Murine 3T3-F442A preadipocytes were grown until confluence. After confluence, 3T3-F442A cells were allowed to differentiate into adipocytes and become filled with triglycerides. Lipolysis was assessed as glycerol release from 3T3-F442A adipocytes in well plates. Adipocyte monolayers were incubated with Krebs-Ringer buffer containing Hepes (KRH), supplemented with 2% fatty acid-free BSA, 5 mM glucose, ADA and PIA. In addition, cells were treated with β-hydroxy-β-methylbutyrate (HMB) at either 0 (control), 0.1, 1, or 6 mM concentrations. Cells were incubated in the absence (Basal) or in the presence of 0.1 μM isoproterenol for 1 hour. Aliquots of the incubation medium were removed and frozen until glycerol determination. Glycerol was measured by a commercial enzymatic method. Data were presented as the fold increase over control. Results. […] Lipolysis in Human Subcutaneous Adipocytes Methods. Human subcutaneous adipocytes were obtained from donors and incubated in vitro. Lipolysis was assessed as glycerol release in well plates. Adipocyte were incubated with Krebs-Ringer buffer containing Hepes (KRH), supplemented with 4% fatty acid-free BSA, 5 mM glucose, ADA and PIA. […] Glycerol was measured by a commercial enzymatic method. […] Similarly, cytokine receptor interaction and calcium signaling pathways are also elevated as measured by mRNAs.

[4] = test system: SGBS human pre-adipocytes differentiated into adipocytes; assay: Microarray (mRNA) pathway analysis in differentiated SGBS adipocytes; format: cell-based; settings: 1 mM HMB for 4 days
Method: as §1

[5] = test system: Differentiated adipocytes; assay: Gene expression by qPCR in differentiated adipocytes; format: cell-based; settings: 1 mM HMB, 4 days
Method: Differentiated adipocytes were incubated for 4 days with 1 mM of HMB. RNA was extracted and gene expression was determined by qPCR. Gene expression for ATGL, ACOX, PGC1a, ATG7 and BNIP3 were analyzed. […] ATGL is highly expressed in adipose tissue of humans and mice. ACOX1, or acyl-CoA oxidase 1 is the first enzyme involved in peroxisomal fatty acid oxidation. This occurs when the fatty acid chains are too long to be handled by the mitochondria. The high-potential electrons generated are transferred to O2→H2O2 (+heat) which in the presence of catalase→H2O and O2. PGC1α is a key regulator of energy metabolism and is found to be very important in the development of brown adipose tissue which is the high energy yielding adipose tissue. Autophagy-related protein 7 (ATG7) regulates fat mass. Knocking ATG7 down will result in abnormal non-functional adipose tissue. Elevated levels increase tissue recycling. BNIP3 is another autophagy-related protein like ATG7 that appears to be significant. The gene expression results appear in FIG. 3.

[6] = test system: Differentiated human adipocytes (SGBS); assay: Phosphokinase protein array of SGBS adipocytes; format: cell-based; settings: 1 mM HMB, 4 days, vs untreated cells
Method: This approach was used to determine in non-biased way changes in protein phosphorylation that are known to influence activity of important signaling proteins. Differentiated human adipocytes were treated for 4 days with or without HMB (1 mM). Shown are only the significant increases above untreated cells in phosphorylation of the listed protein at the indicated phosphorylation site(s).

[7] = after HMB is fed; cited from earlier work
[8] = healthy young or old adults; cited from earlier work
[9] = after administration; cited from earlier work
[10] = test system: skeletal muscle; settings: acute ingestion of 2.4 grams; cited from earlier work

CC(C)NCC(O)c1ccc(O)c(O)c1 (centres unmarked) [isoproterenol, reference compound]
maximal lipolysis ([1]; higher concentrations of isoproterenol (1.0 vs 0.1 uM)): reduced maximal lipolysis

CC(C)(O)CC(=O)O [HMB, β-hydroxy-β-methylbutyric acid]
lipolysis (glycerol release, fold increase over control) ([2]; 0.1 μM isoproterenol stimulation, 0.1 mM HMB): increased lipolysis
lipolysis (glycerol release, fold increase over control) ([2]; 0.1 μM isoproterenol stimulation, 6.0 mM HMB): decreased lipolysis
lipolysis (glycerol release, fold increase over control) ([2]; basal, 0.1 mM HMB): increased lipolysis above control
lipolysis (glycerol release, fold increase over control) ([2]; basal, 1 mM HMB): increased lipolysis above control
lipolysis (glycerol release, fold increase over control) ([2]; basal, 6.0 mM HMB): decreased lipolysis
lipolysis (glycerol release, fold increase over control) ([3]; 0.1 mM HMB): increased lipolysis above that of control
lipolysis (glycerol release, fold increase over control) ([3]; 1 mM HMB): increased lipolysis above that of control
Effect on pathway: IL6 signaling (mRNA microarray) [4]: 2.53 fold
expression of ATGL [5]: increase
Fold Change with HMB, phosphorylation of CREB S133 [6]: 1.233 Fold
Fold Change with HMB, phosphorylation of FGR Y412 [6]: 1.262 Fold
Fold Change with HMB, phosphorylation of Fyn Y420 [6]: 1.400 Fold
Fold Change with HMB, phosphorylation of GSK-3a/b S21/S9 [6]: 1.255 Fold
Fold Change with HMB, phosphorylation of Lyn Y397 [6]: 1.335 Fold
Fold Change with HMB, phosphorylation of P53 S46 [6]: 0.834 Fold
Fold Change with HMB, phosphorylation of RSK1/2/3 S380/S386/S377 [6]: 0.732 Fold
Fold Change with HMB, phosphorylation of STAT5a/b Y694/Y699 [6]: 0.804 Fold
Fold Change with HMB, phosphorylation of Yes Y426 [6]: 1.224 Fold
Fold Change with HMB, phosphorylation of p53 S15 [6]: 0.621 Fold
change in AKT1/2/3 at Threonine 308 [6]: no change
enhancement of lipolysis in response to isoproterenol ([1]; 0.1 mM HMB 48 h pre-treatment, 0.1 uM isoproterenol): 2 fold
increase of lipolysis over no HMB ([1]; 1 mM HMB 48 h pre-treatment, 0.1 uM isoproterenol): 4 fold
enhancement of lipolysis response to isoproterenol ([1]; 6 mM HMB 48 h pre-treatment, 0.1 uM isoproterenol): 3 fold
increase of basal lipolysis ([1]; HMB pretreatment, ADA followed by PIA, no isoproterenol): about 2 fold
enhancement of isoproterenol-stimulated lipolysis (glycerol) ([1]; pre-treatment with HMB for 48 h, all HMB doses): 2-4 fold
loss of HMB to urine [7]: 20-50%
side effects [8]: no side effects

CC(C)(O)CC(=O)O [HMB-FA]
plasma levels of HMB compared with calcium HMB [9]: approximately double
time to plasma levels compared with calcium HMB [9]: about one-quarter the time
protein breakdown, change [10]: −56%
skeletal muscle protein synthesis, change [10]: +70%
